Assays:
Format in all cases: in vivo
Amaranthus retroflexus [1] = test: Pre-emergence herbicidal action, AMARE; parameters: key to Herbicidal action against AMARE: % activity: 100 = plants have died, 0 = like control plants; details: for herbicidal action AMARE: dosage 320 g/ha
From the text: (§1) 1. Pre-Emergence Herbicidal Action Against Harmful Plants Seeds of monocotyledonous and dicotyledonous weed plants and crop plants are laid out in sandy loam soil in wood-fiber pots and covered with soil. The compounds of the invention, formulated in the form of wettable powders (WP) or as emulsion concentrates (EC), are then applied to the surface of the covering soil in the form of an aqueous suspension or emulsion at a water application rate equating to 600 to 800 l/ha, with addition of 0.2% wetting agent. After the treatment, the pots are placed in a greenhouse and kept under good growth conditions for the trial plants. The damage to the test plants is scored visually after a test period of 3 weeks by comparison with untreated controls (herbicidal activity in percent (%): 100% activity=the plants have died, 0% activity=like control plants). […] The tables below illustrate, in an exemplary manner, the […] herbicidal action of the compounds according to the invention, the herbicidal activity being stated in percent. [table] In the experiments that follow, herbicidal action of numerous inventive compounds and the known compounds that are structurally closest from D1 (WO 2012/028579 A1) and D2 (WO 2018/202535 A1) were compared under the above-specified conditions by the pre-emergence and post-emergence method. The example numbers given in the tables relate to the compounds disclosed in the respective documents. In addition to the compounds disclosed in D1 and D2, the following compounds V-1 to V-14 that are encompassed by D1 or D2 but are not compounds specified therein were used in the comparative experiments: • V-1: 2-(methylsulfanyl)-3-(methylsulfinyl)-N-(1-methyl-1H-tetrazol-5-yl)-4-(trifluoromethyl)benzamide • V-2: 2-(methylsulfanyl)-3-(methylsulfonyl)-N-(1-methyl-1H-tetrazol-5-yl)-4-(trifluoromethyl)benzamide • V-3: 2,3-bis(ethylsulfanyl)-N-(1-methyl-1H-tetrazol-5-yl)-4-(trifluoromethyl)benzamide • V-4: 2-chloro-3-(ethylsulfanyl)-N-(1-methyl-1H-tetrazol-5-yl)-4-(trifluoromethyl)benzamide • V-5: 2-chloro-4-iodo-3-(methylsulfanyl)-N-(1-methyl-1H-tetrazol-5-yl)benzamide • V-6: 2-chloro-4-iodo-3-(methylsulfinyl)-N-(1-methyl-1H-tetrazol-5-yl)benzamide • V-7: 2-chloro-4-iodo-3-(methylsulfonyl)-N-(1-methyl-1H-tetrazol-5-yl)benzamide • V-8: 2-bromo-3-(methylsulfanyl)-N-(1-methyl-1H-tetrazol-5-yl)-4-(trifluoromethyl)benzamide • V-9: 2-bromo-3-(methylsulfinyl)-N-(1-methyl-1H-tetrazol-5-yl)-4-(trifluoromethyl)benzamide • V-10: 2-bromo-3-(methylsulfonyl)-N-(1-methyl-1H-tetrazol-5-yl)-4-(trifluoromethyl)benzamide • V-11: 2-bromo-3-(ethylsulfanyl)-N-(1-methyl-1H-tetrazol-5-yl)-4-(trifluoromethyl)benzamide • V-12: 2-bromo-3-(ethylsulfinyl)-N-(1-methyl-1H-tetrazol-5-yl)-4-(trifluoromethyl)benzamide • V-13: 2-bromo-3-(ethylsulfonyl)-N-(1-methyl-1-1H-tetrazol-5-yl)-4-(trifluoromethyl)benzamide • V-14: 2-cyclopropyl-3-(ethylsulfanyl)-N-(1-methyl-1H-tetrazol-5-yl)-4-(trifluoromethyl)benzamide Herbicidal Pre-Emergence Action: […]

Stellaria media [2] = test: Pre-emergence herbicidal action, STEME; parameters: key to Herbicidal action against STEME: % activity: 100 = plants have died, 0 = like control plants; details: for herbicidal action STEME: dosage 320 g/ha
From the text: as §1

Matricaria inodora [3] = test: Pre-emergence herbicidal action, MATIN; details: dosage 320 g/ha
From the text: as §1

Echinochloa crus-galli [4] = test: Pre-emergence herbicidal action, ECHCG; details: for herbicidal action ECHCG: dosage 320 g/ha
From the text: as §1

Amaranthus retroflexus [5] = test: Post-emergence herbicidal action, AMARE; parameters: key: % herbicidal action vs untreated; 100 = plants died, 0 = like control; details: post-emergence, dosage 80 g/ha
Description: (§2) [table] 2. Post-Emergence Herbicidal Action Against Harmful Plants Seeds of monocotyledonous and dicotyledonous weed and crop plants are laid out in sandy loam soil in wood-fiber pots, covered with soil and cultivated in a greenhouse under good growth conditions. 2 to 3 weeks after sowing, the test plants are treated at the one-leaf stage. The compounds of the invention, formulated in the form of wettable powders (WP) or as emulsion concentrates (EC), are then sprayed onto the green parts of the plants in the form of an aqueous suspension or emulsion at a water application rate equating to 600 to 800 l/ha, with addition of 0.2% wetting agent. After the test plants have been left to stand in the greenhouse under optimal growth conditions for about 3 weeks, the action of the preparations is assessed visually in comparison to untreated controls (herbicidal action in percent (%): 100% activity=the plants have died, 0% activity=like control plants). […] The tables below illustrate, in an exemplary manner, the post-emergence herbicidal action of the compounds according to the invention, the herbicidal activity being stated in percent. In the experiments that follow, herbicidal action of numerous inventive compounds and the known compounds that are structurally closest from D1 (WO 2012/028579 A1) and D2 (WO 2018/202535 A1) were compared under the above-specified conditions by the pre-emergence and post-emergence method. The example numbers given in the tables relate to the compounds disclosed in the respective documents. In addition to the compounds disclosed in D1 and D2, the following compounds V-1 to V-14 that are encompassed by D1 or D2 but are not compounds specified therein were used in the comparative experiments: • V-1: 2-(methylsulfanyl)-3-(methylsulfinyl)-N-(1-methyl-1H-tetrazol-5-yl)-4-(trifluoromethyl)benzamide • V-2: 2-(methylsulfanyl)-3-(methylsulfonyl)-N-(1-methyl-1H-tetrazol-5-yl)-4-(trifluoromethyl)benzamide • V-3: 2,3-bis(ethylsulfanyl)-N-(1-methyl-1H-tetrazol-5-yl)-4-(trifluoromethyl)benzamide • V-4: 2-chloro-3-(ethylsulfanyl)-N-(1-methyl-1H-tetrazol-5-yl)-4-(trifluoromethyl)benzamide • V-5: 2-chloro-4-iodo-3-(methylsulfanyl)-N-(1-methyl-1H-tetrazol-5-yl)benzamide • V-6: 2-chloro-4-iodo-3-(methylsulfinyl)-N-(1-methyl-1H-tetrazol-5-yl)benzamide • V-7: 2-chloro-4-iodo-3-(methylsulfonyl)-N-(1-methyl-1H-tetrazol-5-yl)benzamide • V-8: 2-bromo-3-(methylsulfanyl)-N-(1-methyl-1H-tetrazol-5-yl)-4-(trifluoromethyl)benzamide • V-9: 2-bromo-3-(methylsulfinyl)-N-(1-methyl-1H-tetrazol-5-yl)-4-(trifluoromethyl)benzamide • V-10: 2-bromo-3-(methylsulfonyl)-N-(1-methyl-1H-tetrazol-5-yl)-4-(trifluoromethyl)benzamide • V-11: 2-bromo-3-(ethylsulfanyl)-N-(1-methyl-1H-tetrazol-5-yl)-4-(trifluoromethyl)benzamide • V-12: 2-bromo-3-(ethylsulfinyl)-N-(1-methyl-1H-tetrazol-5-yl)-4-(trifluoromethyl)benzamide • V-13: 2-bromo-3-(ethylsulfonyl)-N-(1-methyl-1-1H-tetrazol-5-yl)-4-(trifluoromethyl)benzamide • V-14: 2-cyclopropyl-3-(ethylsulfanyl)-N-(1-methyl-1H-tetrazol-5-yl)-4-(trifluoromethyl)benzamide Herbicidal Pre-Emergence Action: […]

Veronica persica [6] = test: Pre-emergence herbicidal action, VERPE; parameters: key to Herbicidal action against VERPE: % activity: 100 = plants have died, 0 = like control plants; details: for herbicidal action VERPE: dosage 320 g/ha
From the text: as §1

Pharbitis purpurea = test: Post-emergence herbicidal action, PHBPU; details: post-emergence, dosage 80 g/ha
Description: as §2

Veronica persica [7] = test: Post-emergence herbicidal action, VERPE; parameters: key: % herbicidal action vs untreated; 100 = plants died, 0 = like control; details: post-emergence, dosage 80 g/ha
Description: as §2

Viola tricolor [8] = test: Pre-emergence herbicidal action, VIOTR; details: dosage 320 g/ha
From the text: as §1

Stellaria media [9] = test: Post-emergence herbicidal action, STEME; parameters: key: % herbicidal action vs untreated; 100 = plants died, 0 = like control; details: post-emergence, dosage 80 g/ha
Description: as §2

Polygonum convolvulus [10] = test: Pre-emergence herbicidal action, POLCO; details: for herbicidal action POLCO: dosage 320 g/ha
From the text: as §1

Viola tricolor [11] = test: Post-emergence herbicidal action, VIOTR; parameters: key: % herbicidal action vs untreated; 100 = plants died, 0 = like control; details: post-emergence, dosage 80 g/ha
Description: as §2

Abutilon theophrasti [12] = test: Post-emergence herbicidal action, ABUTH; parameters: key: % herbicidal action vs untreated; 100 = plants died, 0 = like control; details: post-emergence, dosage 80 g/ha
Description: as §2

Echinochloa crus-galli [13] = test: Post-emergence herbicidal action, ECHCG; parameters: key: % herbicidal action vs untreated; 100 = plants died, 0 = like control; details: post-emergence, dosage 80 g/ha
Description: as §2

Polygonum convolvulus [14] = test: Post-emergence herbicidal action, POLCO; details: post-emergence, dosage 80 g/ha
Description: as §2

Setaria viridis [15] = test: Post-emergence herbicidal action, SETVI; parameters: key: % herbicidal action vs untreated; 100 = plants died, 0 = like control; details: post-emergence, dosage 80 g/ha
Description: as §2

Matricaria inodora [16] = test: Post-emergence herbicidal action, MATIN; parameters: key: % herbicidal action vs untreated; 100 = plants died, 0 = like control; details: post-emergence, dosage 80 g/ha
Description: as §2

Setaria viridis [17] = test: Pre-emergence herbicidal action, SETVI; parameters: key to Herbicidal action against SETVI: % activity: 100 = plants have died, 0 = like control plants; details: for herbicidal action SETVI: dosage 320 g/ha
From the text: as §1

Avena fatua = test: Post-emergence herbicidal action, AVEFA; parameters: key: % herbicidal action vs untreated; 100 = plants died, 0 = like control; details: post-emergence, dosage 80 g/ha
Description: as §2

Abutilon theophrasti [18] = test: Pre-emergence herbicidal action, ABUTH; details: dosage 320 g/ha
From the text: as §1

[19] = comparative experiment, 20 g of a.i./ha

Structure (SMILES)	herbicidal action AMARE (Amaranthus retroflexus [1]) [%]	herbicidal action STEME (Stellaria media [2]) [%]	herbicidal action MATIN (Matricaria inodora [3]) [%]	herbicidal action ECHCG (Echinochloa crus-galli [4]) [%]	Herbicidal action against AMARE (Amaranthus retroflexus [5])	herbicidal action VERPE (Veronica persica [6]) [%]	Herbicidal action against PHBPU (Pharbitis purpurea)	Herbicidal action against VERPE (Veronica persica [7])	herbicidal action VIOTR (Viola tricolor [8]) [%]	Herbicidal action against STEME (Stellaria media [9])	herbicidal action POLCO (Polygonum convolvulus [10]) [%]	Herbicidal action against VIOTR (Viola tricolor [11])	Herbicidal action against ABUTH (Abutilon theophrasti [12])	Herbicidal action against ECHCG (Echinochloa crus-galli [13])	Herbicidal action against POLCO (Polygonum convolvulus [14])	Herbicidal action against SETVI (Setaria viridis [15])	Herbicidal action against MATIN (Matricaria inodora [16])	herbicidal action SETVI (Setaria viridis [17]) [%]	herbicidal action ABUTH (Abutilon theophrasti [18]) [%]	also measured
CCS(=O)(=O)Cc1c(C(F)F)ccc(C(=O)Nc2nnnn2C)c1S(=O)(=O)CC [Example 1-229]	100	100	90	100	80	100	80	90	100	100	100	90	100	90	80	–	–	–	–	–
CCn1nnnc1NC(=O)c1ccc(C)c(CS(C)(=O)=O)c1Cl [Example 2-289]	100	90	100	100	100	90	90	90	–	100	80	80	–	100	80	100	100	100	–	–
CCCn1nnnc1NC(=O)c1ccc(S(C)(=O)=O)c(C[S+](C)[O-])c1C (stereo not drawn) [Example 3-38]	90	90	100	–	100	100	–	100	100	100	80	100	90	90	–	80	80	–	–	–
CCCn1nnnc1NC(=O)c1ccc(C(F)F)c(C[S+](C)[O-])c1C (stereo not drawn) [Example 3-108]	100	–	100	90	80	90	100	100	100	100	–	100	–	80	–	–	90	90	100	Herbicidal action against AVEFA (Avena fatua): 80
CCCn1nnnc1NC(=O)c1ccc(C)c(CS(C)(=O)=O)c1Cl [Example 3-289]	100	–	100	100	90	90	–	90	–	90	80	–	80	90	–	–	100	–	80	–
Cn1nnnc1NC(=O)c1ccc(I)c(S(C)(=O)=O)c1Cl [Example V-7, 2-chloro-4-iodo-3-(methylsulfonyl)-N-(1-methyl-1H-tetrazol-5-yl)benzamide, reference compound]	–	–	–	–	–	–	–	–	–	–	–	–	–	–	–	–	–	–	–	Herbicidal action against AMARE (Amaranthus retroflexus [1]; [19]): 30; Herbicidal action against STEME (Stellaria media [2]; [19]): 0; pest or weed control at 20 g/ha (Echinochloa crus-galli [4]; Echinochloa crus-galli, 504 h, comparative experiment, 20 g of a.i./ha, read-out: Herbicidal action against ECHCG): 10%; Herbicidal action against VERPE (Veronica persica [6]; [19]): 40; Herbicidal action against POLCO (Polygonum convolvulus [10]; [19]): 0; Herbicidal action against SETVI (Setaria viridis [17]; [19]): 0

Source: patent publication US12492173B2, “Herbicidal substituted N-tetrazolyl aryl carboxamides” (Bayer Aktiengesellschaft, priority 2019, dated 2025)
